≈ marks a conversion by molar mass, not a printed value. Calls of active or inactive are those of the source. No cut-off for these calls is given here.
Columns and labels:
[1] = tested on: Mycolicibacterium smegmatis; test: Antibacterial activity against Mycobacterium smegmatis mc2 122 assessed as bacterial growth inhibition incubated for 2 to 3 weeks by resazurin dye based assay; format: functional; conditions: time 2-3 weeks
[2] = tested on: Mycobacterium parascrofulaceum; test: Antibacterial activity against Mycobacterium parascrofulaceum ATCC BAA-614 assessed as bacterial growth inhibition incubated for 2 to 3 weeks by resazurin dye based assay; format: functional; conditions: time 2-3 weeks
[3] = tested on: Mycobacterium tuberculosis; test: Antibacterial activity against Mycobacterium tuberculosis mc2 6230 assessed as bacterial growth inhibition incubated 2 to 3 weeks by resazurin dye based assay; format: functional; conditions: time 2-3 weeks
[4] = tested on: Mycobacterium tuberculosis; test: Antibacterial activity against Mycobacterium tuberculosis H37Ra assessed as bacterial growth inhibition incubated 2 to 3 weeks by resazurin dye based assay; format: functional; conditions: time 2-3 weeks
[5] = tested on: Mycobacterium tuberculosis; test: Antibacterial activity against Mycobacterium tuberculosis H37Rv assessed as MIC of kanamycin A at 8.2 uM incubated for 24 hrs followed by kanamycin A addition measured after 6 days by alamarblue dye based assay; format: functional; conditions: 168 h, time 7 day
[6] = tested on: Mycobacterium avium; test: Antibacterial activity against Mycobacterium avium ATCC 25291 assessed as bacterial growth inhibition incubated for 2 to 3 weeks by resazurin dye based assay; format: functional; conditions: time 2-3 weeks
[7] = tested on: Mycobacteroides abscessus; test: Antibacterial activity against Mycobacterium abscessus ATCC 19977 assessed as bacterial growth inhibition incubated for 2 to 3 weeks by resazurin dye based assay; format: functional; conditions: time 2-3 weeks
[8] = tested on: Mycobacterium intracellulare; test: Antibacterial activity against Mycobacterium intracellulare ATCC 13950 assessed as bacterial growth inhibition incubated for 2 to 3 weeks by resazurin dye based assay; format: functional; conditions: time 2-3 weeks
[9] = target: T1, N-acetyltransferase Eis (Mycobacterium tuberculosis (strain ATCC 25618 / H37Rv), UniProt P9WFK7); test: Inhibition of wild-type Mycobacterium tuberculosis Eis expressed in Escherichia coli BL21(DE3) cells incubated for 5 mins by Ellman's method
T1 sequence (P9WFK7 whole entry): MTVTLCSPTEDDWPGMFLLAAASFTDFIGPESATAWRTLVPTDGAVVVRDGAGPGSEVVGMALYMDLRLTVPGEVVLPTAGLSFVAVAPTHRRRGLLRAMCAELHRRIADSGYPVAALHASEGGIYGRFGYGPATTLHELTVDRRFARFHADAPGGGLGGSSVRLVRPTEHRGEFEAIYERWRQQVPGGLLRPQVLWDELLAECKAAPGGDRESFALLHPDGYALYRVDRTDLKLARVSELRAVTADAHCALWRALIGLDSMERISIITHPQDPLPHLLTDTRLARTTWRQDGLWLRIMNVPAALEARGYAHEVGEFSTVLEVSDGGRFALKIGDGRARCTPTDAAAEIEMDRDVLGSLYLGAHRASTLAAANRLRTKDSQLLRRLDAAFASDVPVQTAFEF

[10] = tested on: Mycobacterium tuberculosis; test: Antibacterial activity against Mycobacterium tuberculosis K204 assessed as MIC of kanamycin A at 97.9 uM incubated for 24 hrs followed by kanamycin A addition measured after 6 days by alamarblue dye based assay; format: functional, organism-based; conditions: time 7.0 day
[11] = tested on: A549; test: Cytotoxicity against human A549 cells upto 12.5 uM incubated for 24 hrs by resazurin dye based cell viability assay; format: toxicity; conditions: a549, 24 h
[12] = tested on: Mycobacterium tuberculosis; test: Antibacterial activity against Mycobacterium tuberculosis H37Rv assessed as MIC of kanamycin A at 100 uM incubated for 24 hrs followed by kanamycin A addition measured after 6 days by alamarblue dye based assay; format: functional; conditions: time 7.0 day
[13] = tested on: Mycobacterium tuberculosis; test: Antibacterial activity against Mycobacterium tuberculosis mc2 6230 assessed as MIC of kanamycin A at 25 uM incubated for 24 hrs followed by kanamycin A addition measured after 6 days by alamarblue dye based assay; format: functional; conditions: mc2 6230, 168 h, time 7 day
[14] = tested on: HEK293; test: Cytotoxicity against HEK293 cells upto 12.5 uM incubated for 24 hrs by resazurin dye based cell viability assay; format: toxicity; conditions: human, hek293, 24 h
[15] = tested on: J774.1; test: Cytotoxicity against mouse J774.1 cells upto 12.5 uM incubated for 24 hrs by resazurin dye based cell viability assay; format: toxicity; conditions: j774.1, 24 h
[16] = tested on: Mycobacterium tuberculosis; test: Antibacterial activity against Mycobacterium tuberculosis mc2 6230 K204 assessed as MIC of kanamycin A at 25 uM incubated for 24 hrs followed by kanamycin A addition measured after 6 days by alamarblue dye based assay; format: functional; conditions: time 7 day
[17] = tested on: A549; test: Cytotoxicity against human A549 cells >=50 uM incubated for 24 hrs by resazurin dye based cell viability assay; format: toxicity; conditions: a549, 24 h
[18] = tested on: Mycobacterium tuberculosis; test: Antibacterial activity against Mycobacterium tuberculosis H37Rv assessed as MIC of kanamycin A at 97.9 uM incubated for 24 hrs followed by kanamycin A addition measured after 6 days by alamarblue dye based assay; format: functional, organism-based; conditions: time 7.0 day
[19] = target: T1, N-acetyltransferase Eis; test: Binding affinity to wild-type Mycobacterium tuberculosis Eis expressed in Escherichia coli BL21(DE3) cells assessed as inhibition constant incubated for 5 mins by Ellman's method based Michaelis-Menten analysis
[20] = tested on: Mycobacterium tuberculosis; test: Antibacterial activity against Mycobacterium tuberculosis H37Rv assessed as MIC of kanamycin A at 5 uM incubated for 24 hrs followed by kanamycin A addition measured after 6 days by alamarblue dye based assay; format: functional; conditions: 168 h, time 7 day
[21] = tested on: Mycobacterium tuberculosis; test: Antibacterial activity against Mycobacterium tuberculosis mc2 6230 K204 assessed as MIC of kanamycin A at 50 uM incubated for 24 hrs followed by kanamycin A addition measured after 6 days by alamarblue dye based assay; format: functional; conditions: mc2 6230 K204, 168 h, time 7 day
[22] = tested on: Mycobacterium tuberculosis; test: Antibacterial activity against Mycobacterium tuberculosis mc2 6230 assessed as MIC of kanamycin A at 50 uM incubated for 24 hrs followed by kanamycin A addition measured after 6 days by alamarblue dye based assay; format: functional; conditions: mc2 6230, 168 h, time 7 day
[23] = tested on: Mycobacterium tuberculosis; test: Antibacterial activity against Mycobacterium tuberculosis H37Rv assessed as MIC of kanamycin A at 7.9 uM incubated for 24 hrs followed by kanamycin A addition measured after 6 days by alamarblue dye based assay; format: functional; conditions: 168 h, time 7 day
[24] = tested on: Mycobacterium tuberculosis; test: Antibacterial activity against Mycobacterium tuberculosis K204 assessed as MIC of kanamycin A at 55.8 uM incubated for 24 hrs followed by kanamycin A addition measured after 6 days by alamarblue dye based assay; format: functional; conditions: K204, 168 h, time 7 day
[25] = tested on: Mycobacterium tuberculosis; test: Antibacterial activity against Mycobacterium tuberculosis H37Rv assessed as MIC of kanamycin A at 55.8 uM incubated for 24 hrs followed by kanamycin A addition measured after 6 days by alamarblue dye based assay; format: functional; conditions: 168 h, time 7 day

SMILES | MIC [1] | MIC [2] | MIC [3] | MIC [4] | MIC [6] | MIC [7] | MIC [8] | IC50 [9] | Activity [12] | MIC [13] | Ki [19] | further results
Fc1ccc(COc2ccccc2CNCc2cccnc2)cc1 | > 62.5 µM | > 62.5 µM | > 100 µM | 125 µM (≈ 40.3 µg/mL) | > 62.5 µM | > 62.5 µM | > 62.5 µM | 10000 nM | – | – | – | MIC [5]: 2.5 µg/mL
Clc1ccc(COc2ccccc2CNCc2cccnc2)cc1 | 62.5 µM (≈ 21.2 µg/mL) | – | 50 µM (≈ 16.9 µg/mL) | 62.5 µM (≈ 21.2 µg/mL) | > 62.5 µM | > 62.5 µM | – | 2000 nM | Active | < 1.25 µM | 1160 nM | Activity [10]: Active; Activity [11]: Non-Toxic; Activity [14]: Non-Toxic; Activity [15]: Non-Toxic; MIC ([16]; Mycobacterium tuberculosis, mc2 6230 K204, 168 h, read-out: MIC): > 10 µM; Activity [17]: Toxic; Activity [18]: Active
Clc1cccc(COc2ccccc2CNCc2ccncc2)c1 | > 62.5 µM | 31.3 µM (≈ 10.6 µg/mL) | 100 µM (≈ 33.9 µg/mL) | 62.5 µM (≈ 21.2 µg/mL) | > 62.5 µM | > 62.5 µM | > 62.5 µM | 8900 nM | – | – | – | MIC [20]: 2.5 µg/mL
Brc1ccc(COc2ccccc2CNCc2ccccc2)cc1 | – | – | 100 µM (≈ 38.2 µg/mL) | 31.3 µM (≈ 12 µg/mL) | > 62.5 µM | – | 31.3 µM (≈ 12 µg/mL) | 1300 nM | Active | – | 5260 nM | MIC [21]: > 10 µM; MIC [22]: < 1.25 µM
Clc1cccc(COc2ccccc2CNCc2cccnc2)c1 | – | > 62.5 µM | 100 µM (≈ 33.9 µg/mL) | – | > 62.5 µM | > 62.5 µM | > 62.5 µM | 4200 nM | – | – | – | MIC [23]: 7.9 µg/mL
Clc1ccc(COc2ccccc2CNCc2ccncc2)cc1 | – | > 62.5 µM | 50 µM (≈ 16.9 µg/mL) | 31.3 µM (≈ 10.6 µg/mL) | > 62.5 µM | 31.3 µM (≈ 10.6 µg/mL) | 31.3 µM (≈ 10.6 µg/mL) | 1400 nM | – | < 1.25 µM | 1040 nM | MIC [24]: > 10 µg/mL; MIC [25]: < 1.25 µg/mL; MIC [16]: >10 µM
